# Patent US20150004224A1
# Several values for one entry are separate records, joined by “and”; a condition that tells them apart may be missing. Equal values may be shown once.
# System: Hep G2 hepatocarcinoma cells
# Test: Gene expression profiling of Hep G2 cells incubated with EPA, DHA, DPA (Illumina HT-12 bead arrays, Ingenuity iReport)
# [1] = EPA 100 μM, DHA 40 μM, DPA 11 μM
# [2] = top genes uniquely regulated by DPA (11 μM), 48 hours
smiles,measurement,setting,value
"CC/C=C\C/C=C\C/C=C\C/C=C\C/C=C\C/C=C\CCC(=O)O [DHA, docosahexaenoic acid (C22:6 n-3)]",FOXO3 regulation (top genes uniquely regulated by DHA),DHA 40 μM,←
same,LSMD1 regulation (top genes uniquely regulated by DHA),DHA 40 μM,↑
same,MAP2K2 regulation (top genes uniquely regulated by DHA),DHA 40 μM,↓
same,MRPS34 regulation (top genes uniquely regulated by DHA),DHA 40 μM,↑
same,MT1X regulation (top genes uniquely regulated by DHA),DHA 40 μM,↑
same,NFKB1 regulation (top genes uniquely regulated by DHA),DHA 40 μM,←
same,SNORA62 regulation (top genes uniquely regulated by DHA),DHA 40 μM,↑
same,TNFSF11 regulation (top genes uniquely regulated by DHA),DHA 40 μM,←
same,ZNF652 regulation (top genes uniquely regulated by DHA),DHA 40 μM,↓
same,AHSA2 regulation (top genes commonly regulated),[1],↑
same,ALPP down-regulation: symbol for regulation in common,[1],¶(DPA)
same,ALPP regulation (top genes commonly regulated),[1],↓
same,CATSPER2 regulation (top genes commonly regulated),[1],↓
same,CCBE1 down-regulation: symbol for regulation in common,[1],¶(DPA)
same,CCBE regulation (top genes commonly regulated),[1],↓
same,CCL20 regulation (top genes commonly regulated),[1],↓
same,CDKN2AIPNL regulation (top genes commonly regulated),[1],↓
same,DDX51 down-regulation: symbol for regulation in common,[1],¶(DPA)
same,DDX51 regulation (top genes commonly regulated),[1],↓
same,HIST2H2AA3/HIST2H2AA4 up-regulation: symbol for regulation in common,[1],¶(EPA)
same,IL8 regulation (top genes commonly regulated),[1],↓
same,LOX up-regulation: symbol for regulation in common,[1],¶(EPA)
same,MST1 (includes EG: 15235) regulation (top genes commonly regulated),[1],↑
same,MST1 (includes EG: 15235) up-regulation: symbol for regulation in common,[1],¶(DPA)
"CC/C=C\C/C=C\C/C=C\C/C=C\C/C=C\CCCCCC(=O)O [DPA, docosapentaenoic acid (C22:5 n-3)]",number of genes involved in lipid metabolism responsive,1 μM DPA,2 genes
same,fewer genes affected at the lower than at the higher DPA concentration,1 μM vs 11 μM DPA,10 fold
same,increase in number of cardiovascular physiology genes affected,11 μM DPA vs 1 μM DPA,five-fold
same,number of lipid metabolism genes uniquely responding with statistically significant change in expression,"11 μM DPA, not 1 μM",22 genes
same,"number of genes uniquely responsive to the higher, but not the lower, DPA level",11 μM vs 1 μM DPA,310 genes and 300 genes
same,Cardiovascular: Total gene responses Low [DPA],DPA 1 μM,10
same,Inflammatory: Total gene responses Low [DPA],DPA 1 μM,18
same,Lipid metabolism: Total gene responses Low [DPA],DPA 1 μM,2
same,Cardiovascular: Gene responses in common,DPA 1 μM and 11 μM,6
same,Inflammatory: Gene responses in common,DPA 1 μM and 11 μM,4
same,Lipid metabolism: Gene responses in common,DPA 1 μM and 11 μM,0
same,APOA2 expression Fold Change,DPA 11 μM,−1.229
same,CD83 expression Fold Change,DPA 11 μM,−1.629
same,Cardiovascular: Total gene responses High [DPA],DPA 11 μM,51
same,DGAT1 expression Fold Change,DPA 11 μM,1.602
same,DNAJB1 expression Fold Change,DPA 11 μM,−1.489
same,FGFR3 expression Fold Change,DPA 11 μM,1.336
same,GNAI3 expression Fold Change,DPA 11 μM,1.455
same,IL8 expression Fold Change,DPA 11 μM,−2.535
same,IL18 (includes EG: 16173) expression Fold Change,DPA 11 μM,−1.347
same,IL32 expression Fold Change,DPA 11 μM,−1.629
same,IP6K1 expression Fold Change,DPA 11 μM,−1.242
same,IP6K2 expression Fold Change,DPA 11 μM,1.319
same,Inflammatory: Total gene responses High [DPA],DPA 11 μM,22
same,KIT expression Fold Change,DPA 11 μM,1.239
same,Lipid metabolism: Total gene responses High [DPA],DPA 11 μM,22
same,NFKB1 expression Fold Change,DPA 11 μM,−1.386
same,PDPN (includes EG: 10630) expression Fold Change,DPA 11 μM,−1.307
same,PGF expression Fold Change,DPA 11 μM,−1.284
same,PIP4K2B expression Fold Change,DPA 11 μM,−1.578
same,PLA2G16 expression Fold Change,DPA 11 μM,−1.337
same,PLIN5 expression Fold Change,DPA 11 μM,−1.371
same,PTGR2 expression Fold Change,DPA 11 μM,−1.416
same,PTX3 expression Fold Change,DPA 11 μM,−1.536
same,RGS2 (includes EG: 19735) expression Fold Change,DPA 11 μM,1.289
same,STIP1 expression Fold Change,DPA 11 μM,−1.469
same,ACADSB (short/branched chain acyl-CoA dehydrogenase) expression,DPA at 11 μM,upregulates
same,HMGCR expression,DPA at 11 μM,downregulated
same,SQLE expression,DPA at 11 μM,downregulated
same,AHSA2 regulation (top genes commonly regulated),[1],↑
same,AHSA2 up-regulation: symbol for regulation in common,[1],→♦
same,ALPP down-regulation: symbol for regulation in common,[1],¶(DHA)
same,ALPP regulation (top genes commonly regulated),[1],↓
same,CATSPER2 down-regulation: symbol for regulation in common,[1],→♦
same,CATSPER2 regulation (top genes commonly regulated),[1],↓
same,CCBE1 down-regulation: symbol for regulation in common,[1],¶(DHA)
same,CCBE regulation (top genes commonly regulated),[1],↓
same,CCL20 regulation (top genes commonly regulated),[1],↓
same,CDKN2AIPNL regulation (top genes commonly regulated),[1],↓
same,DDX51 down-regulation: symbol for regulation in common,[1],¶(DHA)
same,DDX51 regulation (top genes commonly regulated),[1],↓
same,IL8 regulation (top genes commonly regulated),[1],↓
same,MST1 (includes EG: 15235) regulation (top genes commonly regulated),[1],↑
same,MST1 (includes EG: 15235) up-regulation: symbol for regulation in common,[1],→¶(DHA)
same,RELB down-regulation: symbol for regulation in common,[1],¶(EPA)
same,RELB regulation (top genes commonly regulated),[1],↓
same,SRSF1 regulation (top genes commonly regulated),[1],↑
same,SRSF1 up-regulation: symbol for regulation in common,[1],→¶(EPA)
same,increase in number of genes involved in inflammatory pathways,printed: observed at 1 μM,only a minor increase
same,ALDOC gene regulation,[2],↑
same,AMT gene regulation,[2],↑
same,HNRNPA2B1 gene regulation,[2],↑
same,MGC16121 gene regulation,[2],↑
same,PRKCD gene regulation,[2],←
same,QRFPR gene regulation,[2],↓
same,RELA (inhibited) gene regulation,[2],←
same,SRSF5 gene regulation,[2],↑
same,STK36 gene regulation,[2],↑
same,TLR7 (inhibited) gene regulation,[2],←
same,TOP3B gene regulation,[2],↑
same,ZNF14 gene regulation,[2],↑
"CC/C=C\C/C=C\C/C=C\C/C=C\C/C=C\CCCC(=O)O [EPA, eicosapentaenoic acid (C20:5 n-3)]",Beta-estradiol (inhibited) (top genes uniquely regulated by EPA),EPA 100 μM,←
same,GNAI3 regulation (top genes uniquely regulated by EPA),EPA 100 μM,↑
same,GOS2 regulation (top genes uniquely regulated by EPA),EPA 100 μM,↓
same,HERPUD1 regulation (top genes uniquely regulated by EPA),EPA 100 μM,↓
same,HIST2H2BE (includes others) regulation (top genes uniquely regulated by EPA),EPA 100 μM,↑
same,IER3 regulation (top genes uniquely regulated by EPA),EPA 100 μM,↓
same,IL2 (inhibited) (top genes uniquely regulated by EPA),EPA 100 μM,←
same,Lipopolysaccharide (inhibited) (top genes uniquely regulated by EPA),EPA 100 μM,←
same,MAT2A regulation (top genes uniquely regulated by EPA),EPA 100 μM,↑
same,NFKBIA regulation (top genes uniquely regulated by EPA),EPA 100 μM,↓
same,NFkB (complex) (inhibited) (top genes uniquely regulated by EPA),EPA 100 μM,←
same,RGS2 (includes EG: 19735) regulation (top genes uniquely regulated by EPA),EPA 100 μM,↑
same,AHSA2 regulation (top genes commonly regulated),[1],↑
same,CATSPER2 regulation (top genes commonly regulated),[1],↓
same,CCL20 regulation (top genes commonly regulated),[1],↓
same,CDKN2AIPNL regulation (top genes commonly regulated),[1],↓
same,HIST1H3A (includes others) up-regulation: symbol for regulation in common,[1],¶(DHA)
same,HIST2H2AA3/HIST2H2AA4 up-regulation: symbol for regulation in common,[1],¶(DHA)
same,IL8 regulation (top genes commonly regulated),[1],↓
same,LOX up-regulation: symbol for regulation in common,[1],¶(DHA)
same,RELB down-regulation: symbol for regulation in common,[1],¶(DPA)
same,RELB regulation (top genes commonly regulated),[1],↓
same,SRSF1 regulation (top genes commonly regulated),[1],↑
same,SRSF1 up-regulation: symbol for regulation in common,[1],¶(DPA)
